Test results as given in US9133137B2, “Derivatives of gefitinib” (Concert Pharmaceuticals, Inc., priority 2008, dated 2015).
Read-outs that look alike come from different tables or passages of the source.

Assay: Metabolic stability in human liver microsomes (in vitro t1/2)
Type: in vitro ADME
Settings: pooled human liver microsomes, pooled human liver microsomes 3.0 mg/mL, test compound 0.5 μM, NADPH, 37° C.
Experimental: Microsomal Assay: Human liver microsomes (20 mg/mL) were obtained from Xenotech, LLC (Lenexa, Kans.). βnicotinamide adenine dinucleotide phosphate, reduced form (NADPH), magnesium chloride (MgCl2), and dimethyl sulfoxide (DMSO) were purchased from SigmaAldrich. The incubation mixtures were prepared according to Table 2:
Determination of Metabolic Stability: Two aliquots of this reaction mixture were used for a compound of this invention. The aliquots were incubated in a shaking water bath at 37° C. for 3 minutes. The test compound was then added into each aliquot at a final concentration of 0.5 μM. The reaction was initiated by the addition of cofactor (NADPH) into one aliquot (the other aliquot lacking NADPH served as the negative control). Both aliquots were then incubated in a shaking water bath at 37° C. Fifty microliters (50 μL) of the incubation mixtures were withdrawn in triplicate from each aliquot at 0, 5, 10, 20, and 30 minutes and combined with 50 μL of ice-cold acetonitrile to terminate the reaction. The same procedure was followed for gefitinib and 7-ethoxycoumarin, the positive control. Testing was done in triplicate.
Data analysis: The in vitro half-lives (t1/2s) for test compounds were calculated from the slopes of the linear regression of % parent remaining (ln) vs incubation time relationship using the following formula: in vitro t1/2=0.693/k, where k=[slope of linear regression of % parent remaining(ln)vs incubation time] Data analysis was performed using Microsoft Excel Software.
The metabolic stability of compounds of Formula A or I was tested using pooled liver microsomal incubations. Full scan LCMS analysis was then performed to detect major metabolites. Samples of the test compounds, exposed to pooled human liver microsomes, were analyzed using HPLCMS (or MS/MS) detection. For determining metabolic stability, multiple reaction monitoring (MRM) was used to measure the disappearance of the test compounds. For metabolite detection, Q1 full scans were used as survey scans to detect the major metabolites.

[1] = Experiment No. 1, read-out: t½ (min), Experiment No. 1
[2] = Experiment No. 2, read-out: t½ (min), Experiment No. 2
[3] = Experiment No. 3, read-out: t½ (min), Experiment No. 3
[4] = average of experiments 1-3, read-out: t½ (min), Ave

Compound | half-life at 0.5 μM [1] | half-life at 0.5 μM [2] | half-life at 0.5 μM [3] | half-life at 0.5 μM [4]
COc1cc2ncnc(Nc3ccc(F)c(Cl)c3)c2cc1OCCCN1CCOCC1 [Gefitinib, (3-chloro-4-fluoro-phenyl)-[7-methoxy-6-(3-morpholin-4-yl-propoxy)-quinazolin-4-yl]-amine] | 19.4 min | 17.6 min | 19.8 min | 18.9 min
[2H]C([2H])([2H])Oc1cc2ncnc(Nc3ccc(F)c(Cl)c3)c2cc1OC([2H])([2H])C([2H])([2H])C([2H])([2H])N1C([2H])([2H])C([2H])([2H])OC([2H])([2H])C1([2H])[2H] [Compound 101, N-(3-Chloro-4-fluorophenyl)-7-(methoxy-d3)-6-(3-(morpholino-d8)propoxy-d6)quinazolin-4-amine] | 24.3 min | 23.8 min | 23.1 min | 23.7 min
[2H]C([2H])([2H])Oc1cc2ncnc(Nc3ccc(F)c(Cl)c3)c2cc1OCCCN1CCOCC1 [Compound 104, N-(3-Chloro-4-fluorophenyl)-7-(methoxy-d3)-6-(3-morpholinopropoxy)quinazolin-4-amine] | 22.5 min | 20.8 min | 21.8 min | 21.7 min
[2H]C([2H])([2H])Oc1cc2ncnc(Nc3ccc(F)c(Cl)c3)c2cc1OC([2H])([2H])C([2H])([2H])C([2H])([2H])N1CCOCC1 [Compound 102, N-(3-Chloro-4-fluorophenyl)-7-(methoxy-d3)-6-(3-morpholino(propoxy-d6))quinazolin-4-amine] | 22.5 min | 20.8 min | 21.8 min | 21.7 min
